NC(=O)c1cccnc1Cl
solubility (mole fraction)
Conditions | in 1,4-dioxane | in 2-ethoxyethanol | in 2-methoxyethanol | in DMAc | in DMF | in ethanol | in ethylene glycol | in methanol | in methyl acetate | in water
278.15 K | – | 0.0124 | 0.0205 | 0.132 | 0.0981 | 0.00303 | 0.00783 | 0.00747 | 0.00215 | 0.00081
283.15 K | – | 0.0154 | 0.0246 | 0.141 | 0.107 | 0.00366 | 0.00946 | 0.00893 | 0.00263 | 0.00102
288.15 K | 0.00632 | 0.0182 | 0.0293 | 0.152 | 0.115 | 0.00443 | 0.0114 | 0.0104 | 0.00331 | 0.00127
293.15 K | 0.0077 | 0.0224 | 0.0352 | 0.163 | 0.126 | 0.00539 | 0.0136 | 0.0122 | 0.0041 | 0.00157
298.15 K | 0.00958 | 0.0267 | 0.0413 | 0.175 | 0.137 | 0.00698 | 0.0167 | 0.0148 | 0.00506 | 0.00193
303.15 K | 0.0118 | 0.0311 | 0.0478 | 0.187 | 0.149 | 0.00821 | 0.0201 | 0.0171 | 0.00587 | 0.00237
308.15 K | 0.0136 | 0.0375 | 0.0542 | 0.199 | 0.161 | 0.0101 | 0.024 | 0.0204 | 0.00699 | 0.00291
313.15 K | 0.0168 | 0.0437 | 0.0642 | 0.213 | 0.175 | 0.0124 | 0.0283 | 0.0238 | 0.00885 | 0.00351
318.15 K | 0.02 | 0.0524 | 0.0747 | 0.227 | 0.188 | 0.0147 | 0.034 | 0.0278 | 0.0105 | 0.00437
323.15 K | 0.0244 | 0.0615 | 0.0856 | 0.24 | 0.202 | 0.0178 | 0.0403 | 0.0324 | 0.0127 | 0.00546

Reference: BigSolDB 2.1
